These are literature values, as cited in US20150044284A1, “DOSAGE FORM COMPRISING A STEROID 5-ALPHA-REDUCTASE INHIBITOR AND AN ALPHA BLOCKER, PROCESS FOR PREPARING OF A DOSAGE FORM, USE OF DOSAGE FORM, METHOD FOR THE TREATMENT OR PROPHYLAXIS OF A DISEASE OR CONDITION MEDIATED BY ANDROGEN” (EMS S.A., priority 2013, published 2015).

The subject of data set [1] is DHT (dihydrotestosterone). Particulars: after only two weeks.

Take `C[C@]12C=CC(=O)N[C@@H]1CC[C@@H]1[C@@H]2CC[C@]2(C)[C@@H](C(=O)Nc3cc(C(F)(F)F)ccc3C(F)(F)F)CC[C@@H]12` [dutasteride]: the Solubility in water result is “completely insoluble in water”. Moreover, in data set [1], the “Reduction of DHT levels” value was 90%.
